Assay results taken from patent publication US10619138B2, “Herbicide-resistant hydroxyphenylpyruvate dioxygenases” (BASF SE, priority 2013, dated 2020).
Several values for one entry are separate records, joined by “and”; a condition that tells them apart may be missing. Equal values may be shown once.

Assays:
[1] = biological target: T1, Arabidopsis HPPD (SEQ ID NO: 42) (Arabidopsis thaliana, UniProt P93836); assay: In vitro HPPD activity assay (HGA by HPLC), wildtype enzyme characterization; assay type: biochemical; settings: normalized on Arabidopsis wild-type HPPD; reference enzyme
T1 construct: Arabidopsis (42); His tag; made in house; host or cells: E. coli BL21 (DE3)
T1 sequence (P93836 1-445): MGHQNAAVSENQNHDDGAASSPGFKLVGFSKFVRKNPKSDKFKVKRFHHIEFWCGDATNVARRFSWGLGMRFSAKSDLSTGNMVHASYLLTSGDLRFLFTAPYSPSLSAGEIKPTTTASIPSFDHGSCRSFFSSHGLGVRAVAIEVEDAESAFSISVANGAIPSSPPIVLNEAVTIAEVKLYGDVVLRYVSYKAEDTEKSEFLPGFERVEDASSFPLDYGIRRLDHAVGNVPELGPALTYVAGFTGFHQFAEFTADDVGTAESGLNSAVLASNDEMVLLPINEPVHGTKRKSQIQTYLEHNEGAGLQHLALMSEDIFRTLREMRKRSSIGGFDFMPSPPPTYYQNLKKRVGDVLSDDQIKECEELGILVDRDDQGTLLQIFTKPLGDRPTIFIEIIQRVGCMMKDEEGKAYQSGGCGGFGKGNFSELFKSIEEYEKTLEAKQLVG
Description: (§1) The activity assay for HPPD is based on the analysis of homogentisic acid by reversed phase HPLC.
(§2) The assay mixture can contain 150 mM potassium phosphate buffer pH 7.0, 50 mM L-ascorbic acid, 100 μM Catalase (Sigma-Aldrich), 1 μM FeSO4 and 0.2 units of purified HPPD enzyme in a total volume of 505 μl. 1 unit is defined as the amount of enzyme that is required to produce 1 nmol of HGA per minute at 20° C.
(§3) The reaction is allowed to proceed for 45 min at room temperature. The reaction is stopped by the addition of 50 μl of 4.5 M phosphoric acid. The sample is filtered using a […] pore size PVDF filtration device.
(§4) 5 μl of the cleared sample is analyzed on an UPLC HSS T3 column (particle size 1.8 μm, dimensions 2.1×50 mm; Waters) by isocratic elution using 90% 20 mM NaH2PO4 pH 2.2, 10% methanol (v/v).
(§5) HGA is detected electrochemically at 750 mV (mode: DC; polarity: positive) and quantified by integrating peak areas (Empower software; Waters).
Inhibitors are dissolved in DMSO (dimethylsulfoxide) to a concentration of 0.5 mM. From this stock solution serial five-fold dilutions are prepared in DMSO, which are used in the assay. The respective inhibitor solution accounts for 1% of the assay volume. […] Activities are normalized by setting the uninhibited enzyme activity to 100%. IC50 values are calculated using non-linear regression.
(§6) Using methods which are described in the above examples or well known in the art, purified, recombinant wildtype HPPD enzymes are characterized with respect to their kinetic properties and sensitivity towards HPPD inhibiting herbicides. Apparent michaelis constants (Km) and maximal reaction velocities (Vmax) are calculated by non-linear regression with the software GraphPad Prism 5 (GraphPad Software, La Jolla, USA) using a substrate inhibition model. […] Weighted means (by standard error) of Km and IC50 values are calculated from at least three independent experiments.
(§7) Field performance of the HPPD enzyme, which is used as a herbicide tolerance trait may depend not only on its lack of sensitivity towards HPPD inhibiting herbicides but also on its activity. To assess the potential performance of a herbicide tolerance trait a tolerance index (TI) is calculated using the following formula: […]
(§8) Easy comparison and ranking of each trait is enabled by normalizing tolerance indexes on Arabidopsis wild-type HPPD.

[2] = tested on: Algoriphagus HPPD (SEQ ID NO: 22); assay: In vitro HPPD activity assay, tolerance index; assay type: biochemical, Algoriphagus machipongonensis; settings: normalized on Arabidopsis wild-type HPPD
Description: as §1, §2, §3, §4, §5
(§9) Inhibitors are dissolved in DMSO (dimethylsulfoxide) to a concentration of 0.5 mM. From this stock solution serial five-fold dilutions are prepared in DMSO, which are used in the assay. The respective inhibitor solution accounts for 1% of the assay volume. Thus, final inhibitor concentrations range from 5 μM to 320 pM, respectively. Activities are normalized by setting the uninhibited enzyme activity to 100%. IC50 values are calculated using non-linear regression.
as §6, with “experiments. The Cheng-Prusoff equation for competitive inhibition (Cheng, Y. C.; Prusoff, W. H. Biochem Pharmacol 1973, 22, 3099-3108) is used to calculate dissociation constants (Ki).” for “experiments.”
as §7, §8

[3] = tested on: Pontibacter HPPD (SEQ ID NO: 16); assay: In vitro HPPD activity assay, tolerance index; assay type: biochemical, Pontibacter sp.; settings: normalized on Arabidopsis wild-type HPPD
Description: as §1, §2, §3, §4, §5, §9
as §6, with “experiments. The Cheng-Prusoff equation for competitive inhibition (Cheng, Y. C.; Prusoff, W. H. Biochem Pharmacol 1973, 22, 3099-3108) is used to calculate dissociation constants (Ki).” for “experiments.”
as §7, §8

[4] = tested on: Acidobacterium HPPD (SEQ ID NO: 30); assay: In vitro HPPD activity assay, tolerance index; assay type: biochemical, Acidobacterium capsulatum; settings: normalized on Arabidopsis wild-type HPPD
Description: as §1, §2, §3, §4, §5, §9
as §6, with “experiments. The Cheng-Prusoff equation for competitive inhibition (Cheng, Y. C.; Prusoff, W. H. Biochem Pharmacol 1973, 22, 3099-3108) is used to calculate dissociation constants (Ki).” for “experiments.”
as §7, §8

[5] = tested on: Microscilla HPPD (SEQ ID NO: 20); assay: In vitro HPPD activity assay, tolerance index; assay type: biochemical, Microscilla marina; settings: normalized on Arabidopsis wild-type HPPD
Description: as §1, §2, §3, §4, §5, §9
as §6, with “experiments. The Cheng-Prusoff equation for competitive inhibition (Cheng, Y. C.; Prusoff, W. H. Biochem Pharmacol 1973, 22, 3099-3108) is used to calculate dissociation constants (Ki).” for “experiments.”
as §7, §8

[6] = tested on: Mucilaginibacter HPPD (SEQ ID NO: 28); assay: In vitro HPPD activity assay, tolerance index; assay type: biochemical, Mucilaginibacter paludis; settings: normalized on Arabidopsis wild-type HPPD
Description: as §1, §2, §3, §4, §5, §9
as §6, with “experiments. The Cheng-Prusoff equation for competitive inhibition (Cheng, Y. C.; Prusoff, W. H. Biochem Pharmacol 1973, 22, 3099-3108) is used to calculate dissociation constants (Ki).” for “experiments.”
as §7, §8

SMILES | TI (normalized tolerance index) [1] | TI (normalized tolerance index) [2] | TI (normalized tolerance index) [3] | TI (normalized tolerance index) [4] | TI (normalized tolerance index) [5] | TI (normalized tolerance index) [6]
CC1(C)c2cccnc2C(O)=C(c2ccc(Cl)nc2Cl)S1(=O)=O [Inhibitor 8, 7-(2,6-dichloro-3-pyridyl)-5,5-dimethyl-6,6-dioxo-thiopyrano[4,3-b]pyridin-8-ol] | 1 | 73.7 | 13.7 | 35 and 34.6 | 65.9 | 26
Cc1nonc1NC(=O)c1ccc(S(C)(=O)=O)c(S(C)(=O)=O)c1C [Inhibitor 10, 2-methyl-N-(4-methyl-1,2,5-oxadiazol-3-yl)-3,4-bis(methylsulfonyl)benzamide] | 1 | 19 | 6 | – | 8.3 | 34.1
CC1=NOC(c2c(Cl)ccc(C3=C(O)c4ncccc4C(C)(C)S3(=O)=O)c2Cl)C1 (centres unmarked) [Inhibitor 7, 7-[2,4-dichloro-3-(3-methyl-4,5-dihydroisoxazol-5-yl)phenyl]-5,5-dimethyl-6,6-dioxo-thiopyrano[4,3-b]pyridin-8-ol] | 1 | 448 and 447.5 | 107.7 | 239 and 238.9 | 337.7 | 62.6
